Test results reported in article PMC7756392, “Syntheses of Thailandepsin B Pseudo‐Natural Products: Access to New Highly Potent HDAC Inhibitors via Late‐Stage Modification” (Chemistry (Weinheim an Der Bergstrasse, Germany), 2020).

Test system: acetylated α-tubulin
Experiment: Western blot, acetylated α-tubulin in HL60 cells
Assay type: cell-based
Settings: for ac-tubulin: HL60 cells, 4 h
Procedure: LABTECH POLARstar OPTIMA plate reader (BMG Labtechnologies, Germany).
Western Blot: 2.5 x 10^5 HL60 cells were seeded in sterile 12-well plates and incubated with different concentrations of compound or DMSO for 4 h. Cells were washed with cold PBS, lysed with 90 µL SDS sample buffer (Cell Signaling, 62.5 mM Tris-HCl (pH 6.8 at 25°C), 2% w/v SDS, 10% v/v glycerol, 50 mM dithiothreitol, 0.01% bromophenol blue), shortly sonicated and heated to 95°C for 5 min. Cell extracts were used directly for SDS-PAGE or kept frozen at -20 […]
For the SDS-PAGE, 7 µL cell lysate were loaded on a 12.5% gel and the gel was run at 150V for approximately 1 h, followed by the transfer to a nitrocellulose membrane. The membrane was blocked with 5% milk in TBS-T 0.1% for 1 h at room temperature and washed (3 x 5 min) with TBS-T before adding the antibodies. Western blot analysis was performed with the following primary antibodies: anti-acetylated α-tubulin (Sigma-Aldrich, 1:1000), anti-acetyl-histone 3 (Millipore, 1:2000) and anti-GAPDH (Sigma-Aldrich, 1:5000) and secondary antibodies: anti-mouse-IgG-HRP (Sigma-Aldrich, 1:10000) and anti-rabbit IgG-HRP (Sigma- […]
Aldrich, 1:5000). The antibodies were all diluted in 3% milk in TBS-T 0.1%. Detection was performed via enhanced chemiluminescence (ECL Prime) using a FUSION-SL (PEQLAB) and the FUSION-CAPT software.
Figure 4: Western blot of acetyl-α-tubulin, acetyl-H3 and GAPDH after treatment of HL60 cells with different concentrations of 33 or DMSO for 4 h. GAPDH was used as loading control, DMSO as negative control. […]

## CCCC[C@H]1NC(=O)C[C@@H](/C=C/CCSC(C)=O)OC(=O)C[C@H](O)[C@@H]([C@@H](C)CC)NC(=O)[C@@H](C)NC1=O [compound 33]
0.0001 µM
  ac-tubulin: 1.1%
0.01 µM
  ac-tubulin: 1.1%
0.1 µM
  ac-tubulin: 1.3%
1 µM
  ac-tubulin: 1.4%
Western blot
  levels of acetylated α-tubulin with increasing inhibitor concentration (in words): Constant levels
